This is an account of results in patent publication US8436023B2, “Cyclohexyl-azetidinyl antagonists of CCR2” (Janssen Pharmaceutica N.V., priority 2010, dated 2013).

The target in this experiment is T1, CCR2 (Homo sapiens, UniProt P41597).
T1 construct: host or cells: THP-1 human monocytic cells
T1 sequence (P41597 1-360 isoform P41597-2): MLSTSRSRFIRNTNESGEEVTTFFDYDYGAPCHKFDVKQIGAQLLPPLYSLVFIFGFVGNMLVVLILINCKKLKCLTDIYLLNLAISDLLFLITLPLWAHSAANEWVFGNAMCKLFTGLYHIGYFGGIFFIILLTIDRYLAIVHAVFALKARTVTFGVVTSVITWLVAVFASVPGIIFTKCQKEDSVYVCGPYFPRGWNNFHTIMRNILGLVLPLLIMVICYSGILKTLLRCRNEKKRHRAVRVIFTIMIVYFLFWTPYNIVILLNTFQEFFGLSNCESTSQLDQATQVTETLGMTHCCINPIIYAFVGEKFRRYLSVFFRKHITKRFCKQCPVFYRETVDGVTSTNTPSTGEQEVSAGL
The experiment can be described thus: MCP-1 Receptor Binding Assay in THP-1 Cells. The settings on record: 0.5 nM 125I labeled MCP-1, 2 hours at 30° C., less polar isomer tested where stated, read-out: Inhibition of MCP-1 Binding IC50, CCR2 Binding. On the procedure:
MCP-1 Receptor Binding Assay in THP-1 Cells
Human monocytic cell line THP-1 cells were obtained from American Type Culture Collection (Manassas, Va., USA). The THP-1 cells were grown in RPMI-1640 (RPMI: Roswell Park Memorial Institute Medium-cell culture growth media) supplemented with 10% fetal bovine serum in a humidified 5% CO2 atmosphere at 37° C. The cell density was maintained […].
THP-1 (cells were incubated with 0.5 nM ^125I labeled MCP-1 (Perkin-Elmer Life Sciences, Inc. Boston, Mass.) in the presence of varying concentrations of either unlabeled MCP-1 (R & D Systems, Minneapolis, Minn.) or test compound for 2 hours at 30° C. in a 96 well plate. Cells were then harvested onto a filter plate, dried, and 20 μL of Microscint 20 was added to each well. Plates were counted in a TopCount NXT, Microplate Scintillation & Luminescence Counter (Perkin-Elmer Life Sciences, Inc. Boston, Mass.). Blank values (buffer only) were subtracted from all values and drug treated values were compared to vehicle treated values. 1 μM cold MCP-1 was used for nonspecific binding.
Where an IC50 value was not obtained for a particular compound, the percent inhibition is provided at a test concentration of 25 μM.
What is called IC50 is the concentration at which inhibition is half-maximal. For the molecule `Cn1nc(NCC(=O)NC2CN(C3CCC(O)(c4cncs4)CC3)C2)c2cc(OC(F)(F)F)ccc21` (stereo not shown) [Example 55, N-[1-(4-Hydroxy-4-thiazol-5-yl-cyclohexyl)-azetidin-3-yl]-2-(1-methyl-5-trifluoromethoxy-1H-indazol-3-ylamino)-acetamide], the IC50 stood at 42 nM.
To `COc1ccc(C2(O)CCC(N3CC(NC(=O)CNc4nn(C)c5ccc(OC(F)(F)F)cc45)C3)CC2)cn1` (stereo not shown) [Example 57] belongs 60 nM.
On to `CC(C)C1CCC(N2CC(NC(=O)CNc3nn(C)c4ccc(OC(F)(F)F)cc34)C2)CC1` (stereo not shown) [Example 59], for which the IC50 was 340 nM.
As for `CCOC(=O)C1CCC(N2CC(NC(=O)CNc3nn(C)c4ccc(C(O)C(F)(F)F)cc34)C2)CC1` (stereo not shown) [Example 60, 4-(3-{2-[1-Methyl-5-(2,2,2-trifluoro-1-hydroxy-ethyl)-1H-indazol-3-ylamino]-acetylamino}-azetidin-1-yl)-cyclohexanecarboxylic acid ethyl ester], the IC50 is 2090 nM.
On to `Cn1nc(NCC(=O)NC2CN(C3CCC(O)(c4cncs4)CC3)C2)c2cc(C(O)C(F)(F)F)ccc21` (stereo not shown) [Example 61, N-[1-(4-Hydroxy-4-thiazol-5-yl-cyclohexyl)-azetidin-3-yl]-2-[1-methyl-5-(2,2,2-trifluoro-1-hydroxy-ethyl)-1H-indazol-3-ylamino]-acetamide], for which the IC50 turned out to be 1700 nM.
In the case of `CCc1ncc(C2(O)CCC(N3CC(NC(=O)CNc4nn(C)c5ccc(C(O)C(F)(F)F)cc45)C3)CC2)s1` (stereo not shown) [Example 62, N-{1-[4-(2-Ethyl-thiazol-5-yl)-4-hydroxy-cyclohexyl]-azetidin-3-yl}-2-[1-methyl-5-(2,2,2-trifluoro-1-hydroxy-ethyl)-1H-indazol-3-ylamino]-acetamide], the IC50 worked out at 1500 nM.
In the case of `Cc1ccc(C2(O)CCC(N3CC(NC(=O)CNc4nn(C)c5ccc(C(O)C(F)(F)F)cc45)C3)CC2)cn1` (stereo not shown) [Example 63, N-{1-[4-Hydroxy-4-(6-methyl-pyridin-3-yl)-cyclohexyl]-azetidin-3-yl}-2-[1-methyl-5-(2,2,2-trifluoro-1-hydroxy-ethyl)-1H-indazol-3-ylamino]-acetamide], the IC50 turned out to be 3400 nM.
As to `Cn1nc(NCC(=O)NC2CN(C3CCC(c4ccc5c(c4)OCO5)CC3)C2)c2cc(C(O)C(F)(F)F)ccc21` (stereo not shown) [Example 64, N-[1-(4-Benzo[1,3]dioxol-5-yl-cyclohexyl)-azetidin-3-yl]-2-[1-methyl-5-(2,2,2-trifluoro-1-hydroxy-ethyl)-1H-indazol-3-ylamino]-acetamide], the IC50 was found to be 300 nM.
Take `Cn1nc(NCC(=O)NC2CN(C3CCC(O)(c4cncs4)CC3)C2)c2cc(C(F)C(F)(F)F)ccc21` (stereo not shown) [Example 65, N-[1-(4-Hydroxy-4-thiazol-5-yl-cyclohexyl)-azetidin-3-yl]-2-[1-methyl-5-(1,2,2,2-tetrafluoro-ethyl)-1H-indazol-3-ylamino]-acetamide]: the IC50 stood at 100 nM.
For the molecule `Cn1nc(NCC(=O)NC2CN(C3CCC(O)(c4nccs4)CC3)C2)c2cc(C(F)C(F)(F)F)ccc21` (stereo not shown) [Example 66, N-[1-(4-Hydroxy-4-thiazol-2-yl-cyclohexyl)-azetidin-3-yl]-2-[1-methyl-5-(1,2,2,2-tetrafluoro-ethyl)-1H-indazol-3-ylamino]-acetamide], the IC50 is 37 nM.
Consider `CCn1nc(NCC(=O)NC2CN(C3CCC(O)(c4cncs4)CC3)C2)c2cc(C(F)(F)F)ccc21` (stereo not shown) [Example 67, 2-(1-Ethyl-5-trifluoromethyl-1H-indazol-3-ylamino)-N-[1-(4-hydroxy-4-thiazol-5-yl-cyclohexyl)-azetidin-3-yl]-acetamide], for which the IC50 is 8.4 nM.
The value for `CCn1nc(NCC(=O)NC2CN(C3CCC(O)(c4nccs4)CC3)C2)c2cc(C(F)(F)F)ccc21` (stereo not shown) [Example 68, 2-(1-Ethyl-5-trifluoromethyl-1H-indazol-3-ylamino)-N-[1-(4-hydroxy-4-thiazol-2-yl-cyclohexyl)-azetidin-3-yl]-acetamide] was 51 nM; that for `CCn1nc(NCC(=O)NC2CN(C3CCC(O)(c4cnc(C)s4)CC3)C2)c2cc(C(F)(F)F)ccc21` (stereo not shown) [Example 69, 2-(1-Ethyl-5-trifluoromethyl-1H-indazol-3-ylamino)-N-{1-[4-hydroxy-4-(2-methyl-thiazol-5-yl)-cyclohexyl]-azetidin-3-yl}-acetamide] was 8.6 nM.
For the molecule `CCn1nc(NCC(=O)NC2CN(C3CCC(C(C)C)CC3)C2)c2cc(C(F)(F)F)ccc21` (stereo not shown) [Example 71, 2-(1-Ethyl-5-trifluoromethyl-1H-indazol-3-ylamino)-N-[1-(4-isopropyl-cyclohexyl)-azetidin-3-yl]-acetamide], the IC50 came out at 730 nM.
Take `CCOC(=O)C1CCC(N2CC(NC(=O)CNc3nn(CC(F)(F)F)c4ccc(C(F)(F)F)cc34)C2)CC1` (stereo not shown) [Example 72, 4-(3-{2-[1-(2,2,2-Trifluoro-ethyl)-5-trifluoromethyl-1H-indazol-3-ylamino]-acetylamino}-azetidin-1-yl)-cyclohexane carboxylic acid ethyl ester]: the IC50 stood at 230 nM.
As for `CCc1ncc(C2(O)CCC(N3CC(NC(=O)CNc4nn(CC(F)(F)F)c5ccc(C(F)(F)F)cc45)C3)CC2)s1` (stereo not shown) [Example 73, N-{1-[4-(2-Ethyl-thiazol-5-yl)-4-hydroxy-cyclohexyl]-azetidin-3-yl}-2-[1-(2,2,2-trifluoro-ethyl)-5-trifluoromethyl-1H-indazol-3-ylamino]-acetamide], the concentration for half-maximal inhibition (IC50) is 160 nM.
To `Cc1ccc(C2(O)CCC(N3CC(NC(=O)CNc4nn(CCO)c5ccc(C(F)(F)F)cc45)C3)CC2)cn1` (stereo not shown) [Example 74, 2-[1-(2-Hydroxy-ethyl)-5-trifluoromethyl-1H-indazol-3-ylamino]-N-{1-[4-hydroxy-4-(6-methyl-pyridin-3-yl)-cyclohexyl]-azetidin-3-yl}-acetamide] belongs 55 nM.
For `COc1ccc(C2(O)CCC(N3CC(NC(=O)CNc4nn(CCO)c5ccc(C(F)(F)F)cc45)C3)CC2)cn1` (stereo not shown) [Example 75, 2-[1-(2-Hydroxy-ethyl)-5-trifluoromethyl-1H-indazol-3-ylamino]-N-{1-[4-hydroxy-4-(6-methoxy-pyridin-3-yl)-cyclohexyl]-azetidin-3-yl}-acetamide], the half-maximal inhibitory concentration (IC50) is 32 nM.
Turning to `O=C(CNc1nn(CCO)c2ccc(C(F)(F)F)cc12)NC1CN(C2CCC(O)(c3cncs3)CC2)C1` (stereo not shown) [Example 76], the IC50 worked out at 29 nM.
In the case of `Cc1cnc(C2(O)CCC(N3CC(NC(=O)CNc4nn(CCO)c5ccc(C(F)(F)F)cc45)C3)CC2)s1` (stereo not shown) [Example 77, 2-[1-(2-Hydroxy-ethyl)-5-trifluoromethyl-1H-indazol-3-ylamino]-N-{1-[4-hydroxy-4-(5-methyl-thiazol-2-yl)-cyclohexyl]-azetidin-3-yl}-acetamide], the IC50 was 31 nM.
Regarding `CC(C)(C)NC(=O)n1nc(NCC(=O)NC2CN(C3CCC(O)(c4nccs4)CC3)C2)c2cc(C(F)(F)F)ccc21` (stereo not shown) [Example 80, 3-({[1-(4-Hydroxy-4-thiazol-2-yl-cyclohexyl)-azetidin-3-ylcarbamoyl]-methyl}-amino)-5-trifluoromethyl-indazole-1-carboxylic acid tert-butylamide], the IC50 is 75 nM.
Regarding `NC(=O)n1nc(NCC(=O)NC2CN(C3CCC(O)(c4nccs4)CC3)C2)c2cc(C(F)(F)F)ccc21` (stereo not shown) [Example 81, 3-({[1-(4-Hydroxy-4-thiazol-2-yl-cyclohexyl)-azetidin-3-ylcarbamoyl]-methyl}-amino)-5-trifluoromethyl-indazole-1-carboxylic acid amide], the concentration for half-maximal inhibition (IC50) was 29 nM.
For the molecule `CCOc1ccc(C2(O)CCC(N3CC(NC(=O)CNc4nn(C(=O)NC(C)(C)C)c5ccc(C(F)(F)F)cc45)C3)CC2)cn1` (stereo not shown) [Example 82, 3-[({1-[4-(6-Ethoxy-pyridin-3-yl)-4-hydroxy-cyclohexyl]-azetidin-3-ylcarbamoyl}-methyl)-amino]-5-trifluoromethyl-indazole-1-carboxylic acid tert-butylamide], the IC50 worked out at 34 nM.
`CCOc1ccc(C2(O)CCC(N3CC(NC(=O)CNc4nn(C(N)=O)c5ccc(C(F)(F)F)cc45)C3)CC2)cn1` (stereo not shown) [Example 83, 3-[({1-[4-(6-Ethoxy-pyridin-3-yl)-4-hydroxy-cyclohexyl]-azetidin-3-ylcarbamoyl}-methyl)-amino]-5-trifluoromethyl-indazole-1-carboxylic acid amide]: the 50% inhibitory concentration (IC50) was 22 nM.
On to `CC(C)(C)NC(=O)n1nc(NCC(=O)NC2CN(C3CCC(O[Si](C)(C)C(C)(C)C)CC3)C2)c2cc(C(F)(F)F)ccc21` (stereo not shown) [Example 84, 3-[({1-[4-(tert-Butyl-dimethyl-silanyloxy)-cyclohexyl]-azetidin-3-ylcarbamoyl}-methyl)-amino]-5-trifluoromethyl-indazole-1-carboxylic acid tert-butylamide], for which the IC50 was found to be 870 nM.
